Data reported in patent publication US8962687B2, “Method of treating liver disorders” (priority 2012, dated 2015).
Entries after “also recorded” stand apart in the source; their conditions may differ.

Tests used:
Type in all cases: in vivo, C57BL/6 mice
STAM mice [1] = assay: Whole blood glucose and plasma ALT/AST in STAM model; settings: mean±SD; for Whole blood glucose: non-fasting
Procedure: Non-fasting blood glucose was measured in whole blood using […], Japan). For plasma biochemistry, blood was collected in polypropylene tubes with anticoagulant (Novo-Heparin, Mochida Pharmaceutical, Japan) and centrifuged at 1,000×g for 15 minutes at 4° C. The supernatant was collected and stored at -80° until use. Plasma ALT and AST levels were measured by FUJI DRI-CHEM 7000 (Fujifilm, Japan).

STAM mice [2] = assay: Liver hydroxyproline content in STAM model; settings: mean±SD
Procedure: To quantify liver hydroxyproline content, frozen liver samples (32-40 mg) were processed by an alkaline-acid hydrolysis method as follows. Liver samples were defatted with 100% acetone, dried in the air, dissolved in 2N NaOH at 65° C., and autoclaved at 121° C. for 20 minutes. The lysed samples (400 μL) were acid-hydrolyzed with 400 μL of 6N HCl at 121° C. for 20 minutes, and neutralized with 400 μL of 4N NaOH containing 10 mg/mL activated carbon. AC buffer (2.2M acetic acid/0.48M citric acid, 400 μL) was added to the samples, followed by centrifugation to collect the supernatant. A standard curve of hydroxyproline was constructed with serial dilutions of trans-4-hydroxy-L-proline (Sigma-Aldrich) starting at 16 μg/mL. The prepared samples and standards (each 400 μL) were mixed with 400 μL chloramine T solution (Wako Pure Chemical Industries) and incubated for 25 minutes at room temperature. […] After samples were cooled on ice and centrifuged to remove precipitates, the optical density of each supernatant was measured at 560 nm. The concentrations of hydroxyproline were calculated from the hydroxyproline standard curve. Protein concentrations of liver samples were determined using a BCA protein assay kit (Thermo Fisher Scientific, USA) and used to normalize the calculated hydroxyproline values. Liver hydroxyproline levels were expressed as μg per mg protein.

STAM mice [3] = assay: F4/80 immunostaining, inflammation area in STAM model; settings: mean±SD
Procedure: (§1) For immunohistochemistry, sections were cut from frozen left lateral liver tissues embedded in Tissue-Tek O.C.T. compound and fixed in acetone. Endogenous peroxidase activity was blocked using 0.03% H2O2 for 5 minutes, followed by incubation with Block Ace (Dainippon Sumitomo Pharma, Japan) for 10 minutes. The sections were incubated with a 200-fold dilution of anti-α-SMA (Epitomics, USA) or anti-F4/80 antibody (BMA Biomedicals, Switzerland) 1 hour at room temperature. […] For quantitative analysis of fibrosis area, inflammation area, and semi-quantification of α-SMA, bright field images of Sirius red-stained, F4/80 and α-SMA-immunostained sections were captured around the central vein using a digital camera (DFC280; Leica, Germany) at 200-fold magnification, and the positive areas in 5 fields/section were measured using ImageJ software (National Institute of Health, USA).

Alpha-SMA mRNA = assay: Quantitative RT-PCR of liver, Alpha-SMA; settings: relative, mean±SD
Procedure: (§2) Total RNA was extracted from liver samples using RNAiso (Takara Bio, Japan) according to the manufacturer's instructions. One μg of RNA was reverse-transcribed using a reaction mixture containing 4.4 mM MgCl2 (Roche, Switzerland), 40 U RNase inhibitor (Toyobo, Japan), 0.5 mM dNTP (Promega, USA), 6.28 μM random hexamer (Promega), 5× first strand buffer (Promega), 10 mM dithiothreitol (Invitrogen) and 200 U MMLV-RT (Invitrogen) in a final volume of 20 μL. The reaction was carried out for 1 hour at 37° C., followed by 5 minutes at 99° C. Real-time PCR was performed using real-time PCR DICE and SYBR premix Taq (Takara Bio). To calculate the relative mRNA expression level, the expression of each gene was normalized to that of reference gene 36B4 (gene symbol: Rp1p0). Information of PCR-primer sets and the plate layout was described in Table 1.

STAM mice [4] = assay: Sirius red staining, fibrosis area in STAM model; settings: for fibrosis area (Sirius red-positive area): mean±SD
Procedure: For HE staining, sections were cut from paraffin blocks of left lateral liver tissue prefixed in Bouin's solution and stained with Lillie-Mayer's Hematoxylin (Muto Pure Chemicals, Japan) and eosin solution (Wako Pure Chemical Industries). NAS was calculated according to the criteria of Kleiner (Kleiner D E. et al., Hepatology, 2005; 41:1313). To visualize collagen deposition, Bouin's fixed left lateral liver sections were stained using picro-Sirius red solution (Waldeck, Germany). For quantitative analysis of fibrosis area, inflammation area, and semi-quantification of α-SMA, bright field images of Sirius red-stained, F4/80 and α-SMA-immunostained sections were captured around the central vein using a digital camera (DFC280; Leica, Germany) at 200-fold magnification, and the positive areas in 5 fields/section were measured using ImageJ software (National Institute of Health, USA).

STAM mice [5] = assay: Alpha-SMA immunostaining in STAM model; settings: mean±SD
Procedure: as §1

TIMP-1 mRNA = assay: Quantitative RT-PCR of liver, TIMP-1; settings: relative, mean±SD
Procedure: as §2

TNF-α mRNA = assay: Quantitative RT-PCR of liver, TNF-α; settings: relative, mean±SD
Procedure: as §2

STAM mice [6] = assay: HE staining and NAFLD Activity Score (NAS) in STAM model of NASH; parameters: key to NAS (mean ± SD): NAFLD Activity Score per Kleiner et al. 2005 criteria; settings: for Steatosis score 1, number of mice: score 1 = 5-33%; for Lobular inflammation score 1, number of mice: score 1 = <2 foci/200x; for Hepatocyte ballooning score 1, number of mice: score 1 = Few balloon cells; for Lobular inflammation score 2, number of mice: score 2 = 2-4 foci/200x; for Hepatocyte ballooning score 2, number of mice: score 2 = Many cells/prominent ballooning; for Hepatocyte ballooning score 0, number of mice: score 0 = None
Procedure: STAM™ is a model for non-alcoholic steatohepatitis (NASH), symtoms thereof, and related liver disorders, created by the combination of chemical and dietary interventions in C57BL/6 mice. […] For HE staining, sections were cut from paraffin blocks of left lateral liver tissue prefixed in Bouin's solution and stained with Lillie-Mayer's Hematoxylin (Muto Pure Chemicals, Japan) and eosin solution (Wako Pure Chemical Industries). NAS was calculated according to the criteria of Kleiner (Kleiner D E. et al., Hepatology, 2005; 41:1313). To visualize collagen deposition, Bouin's fixed left lateral liver sections were stained using picro-Sirius red solution (Waldeck, Germany).

CCR2 mRNA = assay: Quantitative RT-PCR of liver, CCR2; settings: relative, mean±SD
Procedure: as §2

MCP-1 mRNA = assay: Quantitative RT-PCR of liver, MCP-1; settings: relative, normalized to 36B4, 30 mg/kg oral once daily, 6-9 wks (MN-001-middle group), mean±SD
Procedure: as §2

STAM mice [7] = assay: Liver weight and liver-to-body weight ratio in STAM model; settings: mean±SD
Procedure: NASH was induced in 50 male mice by a single subcutaneous injection of 200 μg streptozotocin (STZ, Sigma-Aldrich, USA) solution 2 days after birth and feeding with high fat diet (HFD, 57 kcal % fat, cat#: HFD32, CLEA Japan, Japan) after 4 weeks of age. Ten male littermates, fed with normal diet and without STZ treatment, were used for the normal group. Vehicle, MN-001, and Telmisartan were administered by oral route in a volume of 10 mL/kg. MN-001 was administered at doses of 10, 30, and 100 mg/kg once daily. Telmisartan was administered at dose of 10 mg/kg once daily.

[8] = 10 mg/kg oral once daily, 6-9 wks of age (MN-001-low; Telmisartan groups)
[9] = 30 mg/kg oral once daily, 6-9 wks of age (MN-001-middle group)
[10] = 100 mg/kg oral once daily, 6-9 wks of age (MN-001-high group)
[11] = normalized to 36B4, 10 mg/kg oral once daily, 6-9 wks (MN-001-low; Telmisartan groups)
[12] = normalized to 36B4, 30 mg/kg oral once daily, 6-9 wks (MN-001-middle group)
[13] = normalized to 36B4, 100 mg/kg oral once daily, 6-9 wks (MN-001-high group)
[14] = 10 mg/kg oral once daily, 6-9 wks, n 10
[15] = 30 mg/kg oral once daily, 6-9 wks, n 10
[16] = 100 mg/kg oral once daily, 6-9 wks, n 10

SMILES: CCCc1c(SCCCOc2ccc(C(C)=O)c(OCCCC(=O)O)c2CCC)ccc(C(C)=O)c1O [MN-001]
- Plasma ALT (STAM mice [1]; [8]): 71±60 U/L
- Plasma ALT (STAM mice [1]; [9]): 48±23 U/L
- Plasma ALT (STAM mice [1]; [10]): 54±11 U/L
- Whole blood glucose (STAM mice [1]; [8]): 614 ± 98 mg/dL
- Whole blood glucose (STAM mice [1]; [9]): 609 ± 78 mg/dL
- Whole blood glucose (STAM mice [1]; [10]): 671 ± 124 mg/dL
- Liver hydroxyproline content (STAM mice [2]; [8]): 0.78±0.34 μg/mg protein
- Liver hydroxyproline content (STAM mice [2]; [9]): 0.63±0.12 μg/mg protein
- inflammation area (F4/80-positive area) (STAM mice [3]; [9]): 6.33±0.84%
- inflammation area (F4/80-positive area) (STAM mice [3]; [10]): 6.31±0.76%
- Alpha-SMA mRNA expression levels (Alpha-SMA mRNA; [11]): 36.8±111
- Alpha-SMA mRNA expression levels (Alpha-SMA mRNA; [12]): 3.13±2.52
- Alpha-SMA mRNA expression levels (Alpha-SMA mRNA; [13]): 5.78±3.45
- fibrosis area (Sirius red-positive area) (STAM mice [4]; [8]): 0.76±0.19%
- fibrosis area (Sirius red-positive area) (STAM mice [4]; [9]): 0.76±0.16%
- fibrosis area (Sirius red-positive area) (STAM mice [4]; [10]): 0.69±0.18%
- fibrosis area compared with Vehicle (STAM mice [4]; MN-001 treatment groups together (10, 30, 100 mg/kg oral once daily, 6-9 wks), dose dependent manner): significantly reduced; also recorded: significantly decreased
- α-SMA-positive area (STAM mice [5]; [9]): 0.11±0.04%
- TIMP-1 mRNA expression levels (TIMP-1 mRNA; [13]): 10.6±5.83
- TNF-α mRNA expression levels (TNF-α mRNA; [11]): 3.42±2.53
- TNF-α mRNA expression levels (TNF-α mRNA; [12]): 7.97±9.30
- TNF-α mRNA expression levels (TNF-α mRNA; [13]): 9.74±3.34
- NAS (mean ± SD) (STAM mice [6]; [8]): 4.7±0.5
- hepatocellular ballooning, HE-stained liver sections, compared with Vehicle (STAM mice [6]; [8]): moderate decrease
- Steatosis score 1, number of mice (STAM mice [6]; [14]): 10
- Lobular inflammation score 1, number of mice (STAM mice [6]; [14]): 1
- Hepatocyte ballooning score 1, number of mice (STAM mice [6]; [14]): 2
- Lobular inflammation score 2, number of mice (STAM mice [6]; [14]): 9
- Hepatocyte ballooning score 2, number of mice (STAM mice [6]; [14]): 8
- NAS (mean ± SD) (STAM mice [6]; [9]): 4.7±0.5
- hepatocellular ballooning, HE-stained liver sections, compared with Vehicle (STAM mice [6]; [9]): moderate decrease
- Steatosis score 1, number of mice (STAM mice [6]; [15]): 10
- Hepatocyte ballooning score 1, number of mice (STAM mice [6]; [15]): 3
- Lobular inflammation score 2, number of mice (STAM mice [6]; [15]): 10
- Hepatocyte ballooning score 2, number of mice (STAM mice [6]; [15]): 7
- hepatocellular ballooning, HE-stained liver sections / ballooning score, compared with Vehicle (STAM mice [6]; [10]): significantly reduced; also recorded: marked improvements
- inflammatory cell infiltration, HE-stained liver sections, compared with Vehicle (STAM mice [6]; [10]): moderate improvements
- Lobular inflammation score 0, number of mice (STAM mice [6]; 100 mg/kg oral once daily, 6-9 wks, score 0 = No foci, n 10): 1
- Hepatocyte ballooning score 0, number of mice (STAM mice [6]; [16]): 2
- Steatosis score 1, number of mice (STAM mice [6]; [16]): 10
- Lobular inflammation score 1, number of mice (STAM mice [6]; [16]): 4
- Hepatocyte ballooning score 1, number of mice (STAM mice [6]; [16]): 7
- Lobular inflammation score 2, number of mice (STAM mice [6]; [16]): 5
- Hepatocyte ballooning score 2, number of mice (STAM mice [6]; [16]): 1
- CCR2 mRNA expression levels (CCR2 mRNA; [13]): 3.86±1.43
- MCP-1 mRNA expression levels (MCP-1 mRNA): 4.00±7.78
- Mean liver weight (STAM mice [7]; [8]): 1567 ± 165 mg
- Mean liver weight (STAM mice [7]; [10]): 1480 ± 145 mg

SMILES: CCCc1nc2c(C)cc(-c3nc4ccccc4n3C)cc2n1Cc1ccc(-c2ccccc2C(=O)O)cc1 [Telmisartan, reference compound]
- Plasma AST (STAM mice [1]; [8]): 190±28 U/L
- α-SMA-positive area (STAM mice [5]; [8]): 0.12±0.05%
- TIMP-1 mRNA expression levels (TIMP-1 mRNA; [11]): 7.82±2.62
- TNF-α mRNA expression levels (TNF-α mRNA; [11]): 8.35±2.84
- hepatocellular ballooning, HE-stained liver sections, compared with Vehicle (STAM mice [6]; [8]): marked improvements
- inflammatory cell infiltration, HE-stained liver sections, compared with Vehicle (STAM mice [6]; 10 mg/kg oral once daily, 6-9 wks of age (Telmisartan group)): marked improvements
- Steatosis score 0, number of mice (STAM mice [6]; 10 mg/kg oral once daily, 6-9 wks, score 0 = <5%, n 10): 1
- Hepatocyte ballooning score 0, number of mice (STAM mice [6]; [14]): 4
- Steatosis score 1, number of mice (STAM mice [6]; [14]): 9
- Lobular inflammation score 1, number of mice (STAM mice [6]; [14]): 10
- Hepatocyte ballooning score 1, number of mice (STAM mice [6]; [14]): 6
- CCR2 mRNA expression levels (CCR2 mRNA; [11]): 3.21±0.85
